Legend:
[1] = molecular target: T1, human B1R receptor (CHO K1 cells stably transfected with the human B1R gene) (Homo sapiens, UniProt P46663); assay: Functional study on the bradykinin receptor 1 (B1R), Ca2+ fluorescence (Fluo-4) FLIPR/Novostar assay, hB1R cells; type: cell-based; details: CHO-K1, read-out: % inhibition (human B1R) at 10 μM
T1 construct: expressed in transfected cells; host or cells: CHO K1 cells (Chinese hamster ovary), stably transfected
T1 sequence (P46663 1-353): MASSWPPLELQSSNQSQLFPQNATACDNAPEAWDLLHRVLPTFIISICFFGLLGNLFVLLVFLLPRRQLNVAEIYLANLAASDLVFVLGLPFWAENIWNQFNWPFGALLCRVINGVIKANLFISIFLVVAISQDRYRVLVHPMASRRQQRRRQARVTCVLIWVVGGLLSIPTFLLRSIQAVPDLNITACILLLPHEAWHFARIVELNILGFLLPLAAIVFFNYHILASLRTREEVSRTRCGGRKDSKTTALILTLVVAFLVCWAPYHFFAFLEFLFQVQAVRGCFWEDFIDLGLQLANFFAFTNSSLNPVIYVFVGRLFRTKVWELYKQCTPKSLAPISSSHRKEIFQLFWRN
Method in brief: (§1)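 Ca2+ influx (Fluo-4, peak fluorescence, λex 488/λem 540 nm) was measured in CHO K1 lines expressing rat or human B1R. After a 10 μM test-compound pre-addition scoring % activation, cells received EC80 agonist: Des-Arg9-bradykinin for rat, Lys-Des-Arg9-bradykinin for human. Antagonism was expressed as % of maximum inhibition, with IC50 from varied concentrations.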

[2] = molecular target: T2, B1R receptor of the rat (CHO K1 cells stably transfected with the B1R gene of the rat) (Rattus norvegicus, UniProt P97583); assay: Functional study on the bradykinin receptor 1 (B1R), Ca2+ fluorescence (Fluo-4) FLIPR/Novostar assay, rB1R cells; type: cell-based; details: CHO-K1, 10 μM, read-out: % inhibition (rat B1R) at 10 μM
T2 construct: expressed in transfected cells; host or cells: CHO K1 cells (Chinese hamster ovary), stably transfected
T2 sequence (P97583 1-337): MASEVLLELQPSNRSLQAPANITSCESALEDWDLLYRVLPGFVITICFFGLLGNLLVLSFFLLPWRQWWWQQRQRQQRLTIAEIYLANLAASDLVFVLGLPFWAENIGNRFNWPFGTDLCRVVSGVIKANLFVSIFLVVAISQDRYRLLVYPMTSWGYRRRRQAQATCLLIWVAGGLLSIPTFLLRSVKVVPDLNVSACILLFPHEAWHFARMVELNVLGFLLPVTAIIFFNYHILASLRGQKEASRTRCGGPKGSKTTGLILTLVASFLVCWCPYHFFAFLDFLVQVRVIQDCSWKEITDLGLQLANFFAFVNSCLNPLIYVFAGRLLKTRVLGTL
Method in brief: as §1

What does the source list for `Cc1cc(N2CCC(N(C)C(=O)c3ccc4c(c3)[C@H](N(C(=O)c3ccccc3Cl)C(C)C)CC4)CC2)nc(C)n1` [Example H-144, (3R)-3-[(2-Chloro-benzoyl)-isopropyl-amino]-N-[1-(2,6-dimethyl-pyrimidin-4-yl)-piperidin-4-yl]-N-methyl-2,3-dihydro-1H-indene-5-carboxylic acid amide]?
inhibition at 10 µM [1]: 91%; inhibition at 10 µM [2]: 77%

Which results are given for `CCN(C(=O)c1ccccc1Cl)[C@@H]1CCc2ccc(C(=O)N(C)C3CCN(c4cc(C)nc(C)n4)CC3)cc21` [Example H-145, (3R)-3-[(2-Chloro-benzoyl)-ethyl-amino]-N-[1-(2,6-dimethyl-pyrimidin-4-yl)-piperidin-4-yl]-N-methyl-2,3-dihydro-1H-indene-5-carboxylic acid amide]?
inhibition at 10 µM [1]: 100%; inhibition at 10 µM [2]: 106%

Which results are given for `CN(C(=O)c1ccc2c(c1)[C@H](NC(=O)c1ccccc1Cl)CC2)C1CN(c2ccncc2)C1` [Example H-146, (3R)-3-[(2-Chloro-benzoyl)amino]-N-methyl-N-(1-pyridin-4-yl-azetidin-3-yl)-2,3-dihydro-1H-indene-5-carboxylic acid amide]?
inhibition at 10 µM [1]: -1%; inhibition at 10 µM [2]: 107%

For `CN(C(=O)c1ccc2c(c1)[C@H](NC(=O)c1ccccc1Cl)CC2)C1CCN(c2ccncn2)CC1` [Example H-147, (3R)-3-[(2-Chloro-benzoyl)amino]-N-methyl-N-(1-pyrimidin-4-yl-piperidin-4-yl)-2,3-dihydro-1H-indene-5-carboxylic acid amide], which inhibition at 10 µM [1] is on record?
Its inhibition at 10 µM is 99%.

What about the inhibition at 10 µM [2] of the same molecule?
The inhibition at 10 µM was 107%.

Which results are given for `CN(C(=O)c1ccc2c(c1)[C@H](N(C)C(=O)c1ccccc1Cl)CC2)C1CCN(c2ccncn2)CC1` [Example H-148, (3R)-3-[(2-Chloro-benzoyl)-methyl-amino]-N-methyl-N-(1-pyrimidin-4-yl-piperidin-4-yl)-2,3-dihydro-1H-indene-5-carboxylic acid amide]?
inhibition at 10 µM [1]: 89%; inhibition at 10 µM [2]: 99%

What does the source list for `Cc1cc(N2CCC(N(C)C(=O)c3ccc4c(c3)[C@H](N(C)C(=O)c3ccccc3Cl)CC4)CC2)nc(C)n1` [Example H-149, (3R)-3-[(2-Chloro-benzoyl)-methyl-amino]-N-[1-(2,6-dimethyl-pyrimidin-4-yl)-piperidin-4-yl]-N-methyl-2,3-dihydro-1H-indene-5-carboxylic acid amide]?
inhibition at 10 µM [1]: 100%; inhibition at 10 µM [2]: 101%

Which results are given for `CC(C)N(C(=O)c1ccccc1Cl)[C@@H]1CCc2ccc(C(=O)N(C)C3CCN(c4ccncc4)CC3)cc21` [Example H-150, (3R)-3-[(2-Chloro-benzoyl)-isopropyl-amino]-N-methyl-N-(1-pyridin-4-yl-piperidin-4-yl)-2,3-dihydro-1H-indene-5-carboxylic acid amide]?
inhibition at 10 µM [1]: 89%; inhibition at 10 µM [2]: 98%

For `Cc1cc(N2CCC(N(C)C(=O)c3cc4c(cc3F)[C@H](NC(=O)c3ccccc3Cl)CC4)CC2)nc(C)n1` [Example H-151, (1R)-1-[(2-Chloro-benzoyl)amino]-N-[1-(2,6-dimethyl-pyrimidin-4-yl)-piperidin-4-yl]-6-fluoro-N-methyl-2,3-dihydro-1H-indene-5-carboxylic acid amide], which inhibition at 10 µM [1] is on record?
Its inhibition at 10 µM is 100%.

What about the inhibition at 10 µM [2] of the same molecule?
Its inhibition at 10 µM is 96%.

What does the source list for `Cc1cc(N2CCC(N(C)C(=O)c3cc4c(cc3F)[C@H](NC(=O)c3ccccc3Cl)CC4)CC2)ncn1` [Example H-152, (1R)-1-[(2-Chloro-benzoyl)amino]-6-fluoro-N-methyl-N-[1-(6-methyl-pyrimidin-4-yl)-piperidin-4-yl]-2,3-dihydro-1H-indene-5-carboxylic acid amide]?
inhibition at 10 µM [1]: 82%; inhibition at 10 µM [2]: 93%

Which inhibition at 10 µM [1] does the source give for `CN(C(=O)c1ccc2c(c1)[C@H](N(C)C(=O)c1ccccc1Cl)CC2)C1CCN(c2ccncc2)CC1` [Example H-153, (3R)-3-[(2-Chloro-benzoyl)-methyl-amino]-N-methyl-N-(1-pyridin-4-yl-piperidin-4-yl)-2,3-dihydro-1H-indene-5-carboxylic acid amide] here?
The inhibition at 10 µM was 100%.

What about the inhibition at 10 µM [2] of the same molecule?
Its inhibition at 10 µM is 101%.

`CC(C)N(C(=O)c1ccccc1Cl)[C@@H]1CCc2cc(F)c(C(=O)N(C)C3CCN(c4ccncc4)CC3)cc21` [Example H-155, (3R)-3-[(2-Chloro-benzoyl)-isopropyl-amino]-6-fluoro-N-methyl-N-(1-pyridin-4-yl-piperidin-4-yl)-2,3-dihydro-1H-indene-5-carboxylic acid amide] was tested. Which inhibition at 10 µM [1] did it give?
Its inhibition at 10 µM is 62%.

What about the inhibition at 10 µM [2] of the same molecule?
Its inhibition at 10 µM is 104%.

How did the inhibition at 10 µM [1] turn out when `CCN(C(=O)c1ccc2c(c1)[C@H](NC(=O)c1ccccc1Cl)CC2)C1CCN(c2ncnc3nc[nH]c23)CC1` [Example H-156, (3R)-3-[(2-Chloro-benzoyl)amino]-N-ethyl-N-[1-(7H-purin-6-yl)-piperidin-4-yl]-2,3-dihydro-1H-indene-5-carboxylic acid amide] was run?
The inhibition at 10 µM was 90%.

And the inhibition at 10 µM [2]?
Its inhibition at 10 µM is 101%.

How did the inhibition at 10 µM [1] turn out when `CC(C)N(C(=O)c1ccccc1Cl)[C@@H]1CCc2cc(C(=O)N(C)C3CCN(c4ccncc4)CC3)c(F)cc21` [Example H-158, (1R)-1-[(2-Chloro-benzoyl)isopropyl-amino]-6-fluoro-N-methyl-N-(1-pyridin-4-yl-piperidin-4-yl)-2,3-dihydro-1H-indene-5-carboxylic acid amide] was run?
Its inhibition at 10 µM is 23%.

What about the inhibition at 10 µM [2] of the same molecule?
The inhibition at 10 µM was 61%.

With `Cc1cc(N2CC(N(C)C(=O)c3ccc4c(c3)[C@H](NC(=O)c3ccccc3Cl)CC4)C2)ccn1` [Example H-160, (3R)-3-[(2-Chloro-benzoyl)amino]-N-methyl-N-[1-(2-methyl-pyridin-4-yl)-azetidin-3-yl]-2,3-dihydro-1H-indene-5-carboxylic acid amide] as the molecule, how does the inhibition at 10 µM [1] read?
Its inhibition at 10 µM is 100%.

And the inhibition at 10 µM [2]?
Its inhibition at 10 µM is 109%.

What does the source list for `Cc1cc(N2CC(N(C)C(=O)c3ccc4c(c3)[C@H](N3Cc5cccc(Cl)c5C3=O)CC4)C2)ccn1` [Example H-161, (3R)-3-(4-Chloro-3-oxo-1,2-dihydro-isoindol-2-yl)-N-methyl-N-[1-(2-methyl-pyridin-4-yl)-azetidin-3-yl]-2,3-dihydro-1H-indene-5-carboxylic acid amide]?
inhibition at 10 µM [1]: 99%; inhibition at 10 µM [2]: 111%

How did the inhibition at 10 µM [1] turn out when `Cc1cc(N2CCC(N(C)C(=O)c3ccc4c(c3)[C@H](NC(=O)c3ccccc3C)CC4)CC2)nc(C)n1` [Example H-162, (3R)-N-[1-(2,6-Dimethyl-pyrimidin-4-yl)-piperidin-4-yl]-N-methyl-3-[(2-methyl-benzoyl)amino]-2,3-dihydro-1H-indene-5-carboxylic acid amide] was run?
The inhibition at 10 µM was 100%.

What about the inhibition at 10 µM [2] of the same molecule?
Its inhibition at 10 µM is 105%.

How did the inhibition at 10 µM [1] turn out when `Cc1cc(N2CCC(N(C)C(=O)c3ccc4c(c3)[C@H](NC(=O)c3c(F)cccc3Cl)CC4)CC2)nc(C)n1` [Example H-163, (3R)-3-[(2-Chloro-6-fluoro-benzoyl)amino]-N-[1-(2,6-dimethyl-pyrimidin-4-yl)-piperidin-4-yl]-N-methyl-2,3-dihydro-1H-indene-5-carboxylic acid amide] was run?
Its inhibition at 10 µM is 99%.

And the inhibition at 10 µM [2]?
The inhibition at 10 µM was 104%.

Which inhibition at 10 µM [1] does the source give for `CN(C(=O)c1ccc2c(c1)[C@H](NC(=O)c1cccc(F)c1Cl)CC2)C1CCN(c2ccncn2)CC1` [Example H-164, (3R)-3-[(2-Chloro-3-fluoro-benzoyl)amino]-N-methyl-N-(1-pyrimidin-4-yl-piperidin-4-yl)-2,3-dihydro-1H-indene-5-carboxylic acid amide] here?
The inhibition at 10 µM was 100%.

And the inhibition at 10 µM [2]?
Its inhibition at 10 µM is 105%.

Source: patent publication US8680159B2, “Bradykinin 1 receptor modulating compounds” (Gruenenthal GmbH, priority 2010, dated 2014)
